Assay results as given in ChEMBL document CHEMBL4130636, “Contilisant, a Tetratarget Small Molecule for Alzheimer's Disease Therapy Combining Cholinesterase, Monoamine Oxidase Inhibition, and H3R Antagonism with S1R Agonism Profile” (J Med Chem, 2018).
The source made the active and inactive calls. The calls are words filed in the database; no cut-off is given here.

Columns and labels:
[1] = target: T1, Sigma intracellular receptor 2 (Rattus norvegicus, UniProt Q5U3Y7); experiment: Displacement of [3H]DTG from sigma2 receptor in rat liver membranes after 60 mins by liquid scintillation counting method; format: cell membranes, Membrane
T1 sequence (Q5U3Y7 whole entry): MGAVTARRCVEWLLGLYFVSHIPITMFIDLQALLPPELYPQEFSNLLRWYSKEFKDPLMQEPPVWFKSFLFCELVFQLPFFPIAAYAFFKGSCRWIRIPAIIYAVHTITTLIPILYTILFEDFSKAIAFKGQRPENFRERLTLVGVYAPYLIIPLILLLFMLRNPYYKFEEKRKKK

Cholinesterase = Cholinesterase (Homo sapiens, UniProt P06276); experiment: Inhibition of human plasma BuChE using acetylthiocholine iodide as substrate by Ellman's method
Chain of Cholinesterase (P06276 whole entry): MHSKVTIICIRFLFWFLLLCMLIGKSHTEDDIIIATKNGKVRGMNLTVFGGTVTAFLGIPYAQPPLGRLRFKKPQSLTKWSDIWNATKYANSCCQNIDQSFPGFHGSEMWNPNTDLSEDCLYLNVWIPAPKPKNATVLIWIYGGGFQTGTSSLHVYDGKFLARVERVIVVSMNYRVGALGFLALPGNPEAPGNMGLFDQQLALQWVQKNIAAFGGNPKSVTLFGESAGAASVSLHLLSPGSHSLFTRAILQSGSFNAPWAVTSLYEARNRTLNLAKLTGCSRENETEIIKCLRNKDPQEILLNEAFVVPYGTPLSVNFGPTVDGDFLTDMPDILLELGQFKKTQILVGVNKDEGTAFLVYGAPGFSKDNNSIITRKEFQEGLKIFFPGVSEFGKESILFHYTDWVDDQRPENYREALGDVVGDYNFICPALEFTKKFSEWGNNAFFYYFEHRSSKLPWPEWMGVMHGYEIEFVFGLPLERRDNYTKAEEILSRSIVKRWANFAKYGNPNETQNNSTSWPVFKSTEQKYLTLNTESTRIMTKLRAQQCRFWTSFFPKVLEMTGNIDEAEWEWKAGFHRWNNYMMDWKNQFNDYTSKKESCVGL

Acetylcholinesterase = Acetylcholinesterase (Homo sapiens, UniProt P22303); experiment: Inhibition of recombinant human AChE using acetylthiocholine iodide as substrate by Ellman's method
Chain of Acetylcholinesterase (P22303 whole entry): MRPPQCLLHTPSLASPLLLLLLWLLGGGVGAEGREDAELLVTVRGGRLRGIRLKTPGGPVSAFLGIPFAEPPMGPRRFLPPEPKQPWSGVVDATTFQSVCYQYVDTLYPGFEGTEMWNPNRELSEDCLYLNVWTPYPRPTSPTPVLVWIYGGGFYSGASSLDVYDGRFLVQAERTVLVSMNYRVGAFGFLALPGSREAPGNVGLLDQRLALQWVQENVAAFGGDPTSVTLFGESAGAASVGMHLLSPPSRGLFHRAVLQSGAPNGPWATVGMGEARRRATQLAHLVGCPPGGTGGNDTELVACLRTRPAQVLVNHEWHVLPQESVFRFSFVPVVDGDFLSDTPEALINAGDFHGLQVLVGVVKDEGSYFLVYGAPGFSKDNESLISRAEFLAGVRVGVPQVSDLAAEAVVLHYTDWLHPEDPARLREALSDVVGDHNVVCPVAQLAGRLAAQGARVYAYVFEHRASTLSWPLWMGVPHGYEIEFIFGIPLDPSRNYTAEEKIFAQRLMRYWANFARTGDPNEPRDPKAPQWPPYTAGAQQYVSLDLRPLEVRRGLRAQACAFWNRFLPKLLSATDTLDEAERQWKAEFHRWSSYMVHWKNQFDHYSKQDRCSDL

Histamine H3 receptor = Histamine H3 receptor (Homo sapiens, UniProt Q9Y5N1); experiment: Displacement of [3H]-N-alpha-methylhistamine from human H3R expressed in HEK293 cell membranes after 90 mins by liquid scintillation counting method
Chain of Histamine H3 receptor (Q9Y5N1 whole entry): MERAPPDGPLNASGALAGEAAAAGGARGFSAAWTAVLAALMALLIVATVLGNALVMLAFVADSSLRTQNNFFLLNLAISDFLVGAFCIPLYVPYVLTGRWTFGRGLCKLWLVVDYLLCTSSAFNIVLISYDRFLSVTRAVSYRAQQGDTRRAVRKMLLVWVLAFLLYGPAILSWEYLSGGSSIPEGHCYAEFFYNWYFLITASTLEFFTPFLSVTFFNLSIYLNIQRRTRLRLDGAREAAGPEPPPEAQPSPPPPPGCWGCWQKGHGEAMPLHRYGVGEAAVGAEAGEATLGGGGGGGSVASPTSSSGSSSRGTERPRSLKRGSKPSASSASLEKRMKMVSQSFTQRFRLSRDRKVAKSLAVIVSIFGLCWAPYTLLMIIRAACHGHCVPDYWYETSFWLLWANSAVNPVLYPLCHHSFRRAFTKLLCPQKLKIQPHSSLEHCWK

[2] = target: Sigma non-opioid intracellular receptor 1 (Homo sapiens, UniProt Q99720); experiment: Displacement of (+)-[3H]pentazocine from human sigma1 receptor expressed in HEK293 cell membranes after 60 mins by liquid scintillation counting method
Chain of Sigma non-opioid intracellular receptor 1 (Q99720 whole entry): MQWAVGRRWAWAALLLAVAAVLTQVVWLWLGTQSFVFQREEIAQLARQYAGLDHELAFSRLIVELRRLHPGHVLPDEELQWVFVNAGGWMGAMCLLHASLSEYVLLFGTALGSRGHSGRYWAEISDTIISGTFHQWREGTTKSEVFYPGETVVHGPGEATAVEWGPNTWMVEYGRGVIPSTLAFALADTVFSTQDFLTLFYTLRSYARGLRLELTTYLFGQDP

[3] = target: T2, Vesicular acetylcholine transporter (Rattus norvegicus, UniProt Q62666); experiment: Displacement of (-)-[3H]vesamicol from rat VAChT expressed in rat PC12 cell membranes after 60 mins by liquid scintillation counting method
T2 sequence (Q62666 whole entry): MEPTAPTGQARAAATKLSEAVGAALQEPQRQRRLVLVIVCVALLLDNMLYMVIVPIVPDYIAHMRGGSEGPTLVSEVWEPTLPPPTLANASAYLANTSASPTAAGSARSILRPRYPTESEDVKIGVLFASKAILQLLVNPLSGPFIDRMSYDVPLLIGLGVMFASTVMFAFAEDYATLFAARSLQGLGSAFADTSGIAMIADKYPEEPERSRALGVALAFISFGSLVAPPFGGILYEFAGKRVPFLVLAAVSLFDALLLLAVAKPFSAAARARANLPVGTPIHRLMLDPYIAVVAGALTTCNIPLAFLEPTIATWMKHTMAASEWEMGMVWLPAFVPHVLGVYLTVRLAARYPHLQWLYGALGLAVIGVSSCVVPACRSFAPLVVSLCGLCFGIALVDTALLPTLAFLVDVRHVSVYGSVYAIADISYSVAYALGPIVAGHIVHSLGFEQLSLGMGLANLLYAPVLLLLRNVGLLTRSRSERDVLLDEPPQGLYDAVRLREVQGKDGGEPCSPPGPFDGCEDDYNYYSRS

Mus musculus [4] = experiment: In vivo agonist activity at sigma1 receptor in sc dosed capsaicin-induced mechanical allodynia CD-1 mouse model assessed as decrease in paw withdrawal latency pretreated for 30 mins followed by capsaicin treatment measured after 2 hrs; format: functional, organism-based
Mus musculus [5] = experiment: Cognitive enhancing effect in Balb/c mouse assessed as protection against amyloid beta (1 to 42) oligomers-induced memory damage at 1 to 10 mg/kg, po qd via gavage for 17 days starting from 24 hrs post amyloid beta (1 to 42) oligomer treatment measured on day 14 by Y-maze test; format: functional, organism-based
Mus musculus [6] = experiment: Induction of memory damage in Balb/c mouse at 1 to 10 mg/kg, po qd via gavage for 17 measured on day 14 by Y-maze test; format: organism-based; settings: in vivo
Mus musculus [7] = experiment: (§1) Cognitive enhancing effect in amyloid beta (1 to 42)-induced dementia Balb/c mouse model assessed as protection against spatial memory impairment by measuring latency to find food on second, third and fourth days of test at 1 to 10 mg/kg, po qd via gavage for 17 days starting from 24 hrs post amyloid beta (1 to 42) oligomer treatment measured on day 14 by radial arm-maze test; format: functional, organism-based
Mus musculus [8] = experiment: as §1, with “reduction in total errors” for “latency”; format: functional, organism-based
[9] = Selectivity ratio of Ki for sigma2 receptor in rat liver membranes to Ki for human sigma1 receptor expressed in HEK293 cell membranes; format: cell-based
Mus musculus [10] = experiment: In vivo antagonist activity at sigma1 receptor in sc dosed capsaicin-induced mechanical allodynia CD-1 mouse model assessed as increase in paw withdrawal latency pretreated for 30 mins followed by capsaicin treatment measured after 2 hrs; format: functional, organism-based
Mus musculus [11] = experiment: as §1, with “on” for “on second, third and”, “fourth day” for “fourth days”; format: functional, organism-based
Mus musculus [12] = experiment: as §1, with “reduction in total errors” for “latency”, “on” for “on second,”; format: functional, organism-based
Mus musculus [13] = experiment: Cognitive enhancing effect in Balb/c mouse assessed as protection against amyloid beta (1 to 42) oligomers-induced memory damage at 10 mg/kg, po qd via gavage for 17 days starting from 24 hrs post amyloid beta (1 to 42) oligomer treatment measured on day 14 by Y-maze test; format: functional, organism-based
Mus musculus [14] = experiment: as §1, with “on” for “on second,”, “at” for “at 1 to”; format: functional, organism-based
Mus musculus [15] = experiment: as §1, with “reduction in total errors” for “latency”, “on” for “on second,”, “at” for “at 1 to”; format: functional, organism-based

Structure (SMILES): OC1CCCCC1N1CCC(c2ccccc2)CC1 (racemic)
- Ki [1]: 63.4 nM

Structure (SMILES): C#CCN(C)Cc1cc2cc(OCCCN3CCCCC3)ccc2n1C
- IC50 (Cholinesterase): 1690 nM
- IC50 (Acetylcholinesterase): 530 nM
- Ki (Histamine H3 receptor): 10.8 nM
- Ki [2]: 65.2 nM
- Ki [1]: 326 nM
- Ki [3]: 46.3 nM
- Activity (Mus musculus [4]): Dose-dependent effect
- Activity (Mus musculus [5]): Active
- Activity (Mus musculus [6]): Non-Toxic
- Activity (Mus musculus [7]): Active
- Activity (Mus musculus [8]): Active

Structure (SMILES): COc1ccc(CCN2CCN(CCCc3ccccc3)CC2)cc1OC [[11C]SA4503]
- Ki [1]: 62.2 nM
- Ki [3]: 492 nM

Structure (SMILES): C#CCN(C)Cc1cc2cc(OCCCC3CCN(Cc4ccccc4)CC3)ccc2n1C
- Ki [2]: 2.83 nM
- Ki [1]: 50.3 nM
- Ki [3]: 2.58 nM
- Ratio Ki [9]: 18
- inhibition (Mus musculus [10]): Dose-dependent effect
- Activity (Mus musculus [5]): Active
- Activity (Mus musculus [11]): Active
- Activity (Mus musculus [12]): Active

Structure (SMILES): COc1cc2c(cc1OC)C(=O)C(CC1CCN(Cc3ccccc3)CC1)C2 (stereo not given)
- Activity (Mus musculus [13]): Active
- Activity (Mus musculus [14]): Active
- Activity (Mus musculus [15]): Active
